We go through one substance from article PMC11546786, “Designing Analogs of SAAP-148 with Enhanced Antimicrobial and Anti-LPS Activities” (International Journal of Molecular Sciences, 2024).

Ends that are not written are not given here.

Data set [1] concerns Gram-positive bacteria (S. aureus, S. epidermidis). Put plainly: Geometric mean of MICs against Gram-positive bacteria. The class given is cell-based. Also on record: unit not given here. Put shortly: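 Modified CLSI broth microdilution: mid-log bacteria from LB culture were adjusted to 1 × 10^6 CFU/mL and mixed 1:1 with peptide serially diluted in PBS. After 18 to 20 h at 37 °C, growth was read as absorbance at 600 nm.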

For data set [2], the system named is Klebsiella pneumonia (1.1736). The class given is cell-based, Klebsiella pneumoniae. Put shortly:
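Broth microdilution (modified CLSI): mid-log bacteria grown in LB at 37 °C were adjusted to 1 × 10^6 CFU/mL and mixed 1:1 with PBS-diluted peptide. After 18–20 h at 37 °C, absorbance was read at 600 nm.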

Data set [3] in a line: Reversed-phase HPLC retention time as measure of peptide hydrophobicity. The class given is physicochemical. Particulars: retention time by reverse-phase HPLC, reflects hydrophobicity difference between analogues.
For data set [4], the system named is human erythrocytes versus five bacterial strains. Briefly: Therapeutic index (MHC/GM of MIC). An outline of the steps: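 MHC reflects hemolytic activity on erythrocytes, and GM is the geometric mean of the MIC values across the five strains. The TI is their ratio, and larger values denote greater antimicrobial specificity.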
A further data set deals with E. coli. Briefly: Membrane damage, PI staining and flow cytometry. Particulars: 6.25 μM peptide, 30 min. It is filed as cell-based, Escherichia coli. The method, then:
Propidium iodide (PI) was utilized as a marker for assessing the structural integrity of cell membranes and the occurrence of cell death. The impact of peptides on BEAS-2B cells, E. coli, and S. aureus was investigated by treating the cells with peptides followed by PI staining and flow cytometry (FACS) analysis to evaluate peptide-induced membrane damage. Table 5 presents the results of PI staining in BEAS-2B cells (1 × 10^6) following treatment with peptides at a concentration of 6.25 μM. […] FACS analysis at a peptide concentration of 6.25 μM was employed to determine the membrane damage caused by peptides in E. coli and S. aureus cells (Table 5).
Peptide-induced membrane damage was evaluated by quantifying the influx of propidium iodide (PI). BEAS-2B cells (1 × 10^6 cells in 50 μL) were exposed to a final concentration of 6.25 μM peptide and incubated at 37 °C for 30 min, followed by PBS washing and re-suspension in PI solution (dissolved in PBS) at a final concentration of 2 μg/mL. Bacteria were cultured to mid-log phase at 37 °C, then diluted to an OD600 of 0.5 in phosphate-buffered saline (PBS). […] The bacteria were harvested and re-suspended in PI solution, with fluorescence signal analysis conducted using flow cytometry (Cytomics FC 500, Beckman Coulter, Indianapolis, IN, USA).
(Flow cytometry measures light scatter and fluorescence of single cells or particles in a stream.)

Consider LKRVWKRVFKLKKRYWRQLKKPVR-NH2 [SAAP-7], for which the “GM to G+” value in data set [1] was 35.36. Also, the “MIC K. pneumoniae” value in data set [2] was determined as 100.00 µM. Besides, in data set [3], the “Rt” value is recorded as 12.897 min. For the same substance, the “Fold (TI of analogue compared with SAAP-148)” value in data set [4] (TI change relative to SAAP-148) turned out to be 55.09. Moreover, in data set [4] (ratio of MHC to geometric mean of MIC (five strains)), the “TI (MHC/MIC)” value is given as 6.06. Moreover, in the data set on E. coli, the “percentage of PI-positive cells, E. coli” value is reported as 34.9%.
